US10988477B2 (Merck Patent GmbH, priority 2018, dated 2021)

Legend:
[1] = molecular target: GCN2 kinase (Homo sapiens, UniProt Q9P2K8); assay: GCN2 enzyme inhibition assay (Transcreener ADP2 fluorescence polarization); assay type: biochemical; conditions: 280 μM ATP
Procedure, shortened: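 Human GCN2 (4 nM) preincubated 10 min with compound (0–8 μM) and 200 μM (RS)7 peptide in Tris-HCl pH 7.5, NaCl, MgCl2, DTT. Reaction started with 280 μM ATP, run 1 h at 25 °C. ADP detected by Transcreener fluorescence polarization. IC50 and Ki(app) fitted by tight-binding algorithm.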

[2] = molecular target: intracellular GCN2 (phosphorylation of the GCN2 substrate eIF2α) (Homo sapiens, UniProt Q9P2K8); assay: GCN2 cellular inhibition assay (AlphaScreen SureFire P-eIF2α Ser51, borrelidin-treated U2OS cells); assay type: cell-based; conditions: biomarker assay, phosphorylated eIF2α Ser51 in borrelidin-treated U2OS cells
Procedure, shortened: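 Borrelidin at 10 μM is added to U2OS cells immediately after compound (4-fold dilution series, 40 μM top final) for 1 h at 37 °C. Phosphorylated eIF2α Ser51 in lysates is quantified by AlphaScreen and expressed as percent inhibition against borrelidin-stimulated controls.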

[3] = Enzyme activity for compounds of Formula IV, Ki(app), 25° C.
[4] = compounds of Formula II, 4 nM GCN2 kinase

Chain of GCN2 kinase (Q9P2K8 whole entry): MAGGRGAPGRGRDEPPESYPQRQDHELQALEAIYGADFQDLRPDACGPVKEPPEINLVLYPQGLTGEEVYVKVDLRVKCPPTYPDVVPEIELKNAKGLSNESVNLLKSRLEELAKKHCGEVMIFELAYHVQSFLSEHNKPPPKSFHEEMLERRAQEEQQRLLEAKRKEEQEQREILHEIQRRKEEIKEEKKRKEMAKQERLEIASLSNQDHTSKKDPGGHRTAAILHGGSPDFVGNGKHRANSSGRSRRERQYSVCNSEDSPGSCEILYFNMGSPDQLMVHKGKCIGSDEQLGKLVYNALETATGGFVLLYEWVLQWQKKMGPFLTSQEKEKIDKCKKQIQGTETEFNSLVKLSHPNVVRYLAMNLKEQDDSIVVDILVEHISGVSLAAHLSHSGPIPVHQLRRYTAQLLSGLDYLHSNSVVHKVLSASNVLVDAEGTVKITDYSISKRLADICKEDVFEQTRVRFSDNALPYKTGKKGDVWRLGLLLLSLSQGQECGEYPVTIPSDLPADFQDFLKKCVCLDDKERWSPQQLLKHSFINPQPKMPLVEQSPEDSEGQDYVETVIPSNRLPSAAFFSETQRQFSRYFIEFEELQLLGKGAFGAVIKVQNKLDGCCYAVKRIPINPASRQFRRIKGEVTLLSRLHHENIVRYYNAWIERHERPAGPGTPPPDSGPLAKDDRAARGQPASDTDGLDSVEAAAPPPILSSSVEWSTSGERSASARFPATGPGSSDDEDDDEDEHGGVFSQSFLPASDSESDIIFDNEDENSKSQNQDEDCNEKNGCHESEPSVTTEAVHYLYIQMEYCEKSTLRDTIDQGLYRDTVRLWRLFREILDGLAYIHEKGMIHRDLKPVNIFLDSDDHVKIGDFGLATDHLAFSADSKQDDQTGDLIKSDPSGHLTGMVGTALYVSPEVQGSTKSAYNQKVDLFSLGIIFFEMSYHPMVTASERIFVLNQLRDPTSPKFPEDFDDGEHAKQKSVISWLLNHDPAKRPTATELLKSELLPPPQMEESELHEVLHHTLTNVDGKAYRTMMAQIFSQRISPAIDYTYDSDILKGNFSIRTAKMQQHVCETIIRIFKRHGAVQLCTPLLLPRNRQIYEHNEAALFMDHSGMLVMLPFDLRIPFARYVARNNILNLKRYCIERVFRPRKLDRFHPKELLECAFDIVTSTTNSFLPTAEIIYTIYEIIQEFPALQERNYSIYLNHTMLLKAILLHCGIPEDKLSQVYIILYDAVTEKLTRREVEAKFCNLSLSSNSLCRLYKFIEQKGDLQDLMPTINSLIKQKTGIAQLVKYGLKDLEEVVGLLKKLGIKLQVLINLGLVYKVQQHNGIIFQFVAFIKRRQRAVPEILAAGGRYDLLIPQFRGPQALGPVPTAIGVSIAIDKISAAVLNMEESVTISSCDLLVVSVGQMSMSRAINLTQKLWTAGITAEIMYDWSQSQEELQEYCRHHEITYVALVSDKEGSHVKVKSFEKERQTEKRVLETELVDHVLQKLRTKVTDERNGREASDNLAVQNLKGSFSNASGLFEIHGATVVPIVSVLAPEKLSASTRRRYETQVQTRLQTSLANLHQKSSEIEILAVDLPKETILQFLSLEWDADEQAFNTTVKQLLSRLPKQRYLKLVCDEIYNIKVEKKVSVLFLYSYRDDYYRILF
Chain of intracellular GCN2 (phosphorylation of the GCN2 substrate eIF2α) (Q9P2K8 whole entry): as above

Compound | Ki [1, 3] [nM] | IC50 ([2]; compounds of Formula IV) [nM] | Ki [1, 4] [nM] | IC50 ([2]; compounds of Formula II) [nM]
FC(F)(F)c1cn2c(-c3nccc(N4CCCC(c5cn[nH]c5)C4)n3)cnc2cn1 (single isomer, unassigned) [IV-546, 3-(4-(3-(1H-Pyrazol-4-yl)piperidin-1-yl)pyrimidin-2-yl)-6-(trifluoromethyl)imidazo[1,2-a]pyrazine] | < 10 | < 500 | – | –
NC(=O)C1CCCN(c2ccnc(-c3cnc4cnc(C(F)F)cn34)n2)C1 (centres unmarked) [IV-42, 1-(2-(6-(Difluoromethyl)imidazo[1,2-a]pyrazin-3-yl)pyrimidin-4-yl)piperidine-3-carboxamide] | 10 to 100 | 500 to 5000 | – | –
CC1CN(c2ccnc(-c3cnc4ccc(C(F)F)nn34)c2)CC(CNS(C)(=O)=O)C1(F)F (centres unmarked) [II-75, N-((1-(2-(6-(Difluoromethyl)imidazo[1,2-b]pyridazin-3-yl)pyridin-4-yl)-4,4-difluoro-5-methylpiperidin-3-yl)methyl)methanesulfonamide] | – | – | < 10 | < 500
CS(=O)(=O)NCC1CN(c2cc(-c3cnc4ccc(C(F)F)nn34)ccn2)CCN1 (centres unmarked) [II-90, N-((4-(4-(6-(Difluoromethyl)imidazo[1,2-b]pyridazin-3-yl)pyridin-2-yl)piperazin-2-yl)methyl)methanesulfonamide] | – | – | 10 to 1000 | 500 to 5000
CS(=O)(=O)NC1CCCN(c2ccnc(-c3cnc4cnc(C(F)F)cn34)n2)CC1 (centres unmarked) [IV-124] | 100 to 1000 | > 5000 | – | –
COC1CCN(c2cc(-c3cnc4ccc(C(F)F)nn34)ncn2)CC1CNS(C)(=O)=O (centres unmarked) [II-390, N-((1-(6-(6-(Difluoromethyl)imidazo[1,2-b]pyridazin-3-yl)pyrimidin-4-yl)-4-methoxypiperidin-3-yl)methyl)methanesulfonamide] | – | – | < 10 | < 500
CC1C(C(N)=O)CCCN1c1ccnc(-c2cnc3cnc(C(F)F)cn23)n1 (centres unmarked) [IV-109, 1-(2-(6-(Difluoromethyl)imidazo[1,2-a]pyrazin-3-yl)pyrimidin-4-yl)-2-methylpiperidine-3-carboxamide] | 10 to 100 | 500 to 5000 | – | –
CCN1CCN(c2cc(-c3cnc4ccc(C(F)F)nn34)ncn2)C(C)C1CNS(C)(=O)=O (single isomer, unassigned) [II-542, N-((4-(6-(6-(Difluoromethyl)imidazo[1,2-b]pyridazin-3-yl)pyrimidin-4-yl)-1-ethyl-3-methylpiperazin-2-yl)methyl)methanesulfonamide] | – | – | < 10 | < 500
FC(F)c1cn2c(-c3nccc(N4CCC(c5ccncc5)C4)n3)cnc2cn1 (centres unmarked) [IV-68, 6-(Difluoromethyl)-3-(4-(3-(pyridin-4-yl)pyrrolidin-1-yl)pyrimidin-2-yl)imidazo[1,2-a]pyrazine] | 100 to 1000 | > 5000 | – | –
CS(=O)(=O)NCC1CCCN(c2cc(-c3cnc4ccc(C(F)F)nn34)cc(N3CC4(CCO4)C3)n2)C1 (centres unmarked) [II-86, N-((1-(4-(6-(Difluoromethyl)imidazo[1,2-b]pyridazin-3-yl)-6-(1-oxa-6-azaspiro[3.3]heptan-6-yl)pyridin-2-yl)piperidin-3-yl)methyl)methanesulfonamide] | – | – | < 10 | 500 to 5000
CN(CC1CCCN(c2cc(-c3cnc4ccc(C(F)F)nn34)ncn2)C1)S(N)(=O)=O (centres unmarked) [II-311, 1-((1-(6-(6-(Difluoromethyl)imidazo[1,2-b]pyridazin-3-yl)pyrimidin-4-yl)piperidin-3-yl)methyl)-1-methylsulfuric diamide] | – | – | < 10 | < 500
FC(F)(F)c1cn2c(-c3nccc(N4CCC(c5cn[nH]c5)CC4)n3)cnc2cn1 [IV-680, 3-(4-(4-(1H-Pyrazol-4-yl)piperidin-1-yl)pyrimidin-2-yl)-6-(trifluoromethyl)imidazo[1,2-a]pyrazine] | 10 to 100 | 500 to 5000 | – | –
NC(=O)c1ccc2ncc(-c3cc(N4CCN5C(=O)CCCC5C4)ncn3)n2n1 (centres unmarked) [II-727, 3-[6-(6-Oxo-3,4,7,8,9,9a-hexahydro-1H-pyrido[1,2-a]pyrazin-2-yl)pyrimidin-4-yl]imidazo[1,2-b]pyridazine-6-carboxamide] | – | – | 10 to 1000 | > 5000
